Assay results from US20230265104A1, “NOVEL HETEROCYCLIC COMPOUNDS” (PRISM BIOLAB CO., LTD., priority 2020, published 2023).

Tested on: PANC-1 (human pancreatic cancer-derived cell line)
Test: MTS assay on Panc-1 (human pancreas carcinoma cell line)
Assay type: cell-based
Conditions: 144 h; for IC50: PANC-1, MTS method, cell survival 6 days after exposure, 4-parameter logistic fit; for inhibition at 30 µM: PANC-1, MTS, 6 days, read-out: Growth inhibition (%) 30 μM
Description: Experimental Example: MTS Assay on Panc-1 (Human Pancreas Carcinoma Cell Line) cell line name: PANC-1 derived from: human pancreas glandular cancer purchased from: ATCC product code: CRL-1469 proliferation medium: D-MEM+10% FBS culture environment: 37° C., 5% CO2 seeding density: 5.0×10^5 cells/25 cm^2 solvent control substance: DMSO (HYBRI-MAX®, Sigma-Aldrich Corp.) test substance: Example compound (ID-1-ID-13) A DMSO solution of the test substance was prepared by serially diluting (common ratio 2) each test substance with DMSO.
A solvent control substance sample and a test substance sample were exposed to a human pancreatic cancer-derived cell line (PANC-1), and the survival rate of the cell 6 days later was measured by the MTS method. The measurement was performed 3 times and the average thereof was adopted. The survival rate of the cell in each test substance sample was calculated by the following formula 1 with the value at exposure of the solvent control substance sample as 100% survival rate. […]
survival rate (%)=100×absorbance of each test substance sample/absorbance of solvent control substance sample formula 1 Normalized values calculated by the following formula 2 from the absorbances of each sample at 492 nm and 630 nm and the absorbances of the blank were used as the absorbances in the above-mentioned formula 1. […]
normalized value (ABS492 nm-630 nm)=(ABSsa 492 nm-ABSsa 630 nm)−(ABSbl 492 nm-ABSbl 630 nm) ABSsa 492: absorbance of each sample at wavelength 492 nm ABSsa 630: absorbance of each sample at wavelength 630 nm ABSbl 492: absorbance of blank corresponding to each sample at wavelength 492 nm ABSbl 630: absorbance of blank corresponding to each sample at wavelength 630 nm formula 2 […]
The analysis was performed by using nplr package on R (The R Foundation for Statistical Computing) and estimating the logistic regression curve (4-parameter).

| Compound | IC50 [nM] | inhibition at 30 µM [%] |
| --- | --- | --- |
| CC(C)C[C@H]1ON(C(=O)/C=C/c2ccccn2)[C@H]2CN(C3CCN(C)CC3)C(=O)[C@H](CC(C)C)N2C1=O [ID-1, (3R, 6S, 9aS)-3,6-diisobutyl-8-(1-methylpiperidin-4-yl)-1-((E)-3-(pyridin-2-yl)acryloyl) tetrahydropyrazino[2,1-c] [1,2,4]oxadiazine-4,7(3H,6H)-dione] | 4100 |  |
| CC(C)C[C@H]1ON(C(=O)/C=C/c2nc3ccccc3s2)[C@H]2CN(C3CCN(C)CC3)C(=O)[C@H](CC(C)C)N2C1=O [ID-2, (3R, 6S, 9aS)-1-((E)-3-(benzo[d]thiazol-2-yl)acryloyl)-3,6-diisobutyl-8-(1-methylpiperidin-4-yl) tetrahydropyrazino[2,1-c] [1,2,4]oxadiazine-4,7(3H,6H)-dione] | 270 |  |
| CC(C)C[C@H]1ON(C(=O)/C=C/c2nc(C#N)cs2)[C@H]2CN(C3CCN(C)CC3)C(=O)[C@H](CC(C)C)N2C1=O [ID-3, 2-((E)-3-((3R, 6S, 9aS)-3,6-diisobutyl-8-(1-methylpiperidin-4-yl)-4,7-dioxohexahydropyrazino[2,1-c] [1,2,4]oxadiazin-1(6H)-yl)-3-oxoprop-1-en-1-yl)thiazole-4-carbonitrile] | 340 |  |
| CC(C)C[C@H]1ON(C(=O)/C=C/c2nc3ccccc3s2)[C@H]2CN([C@H]3CCN(CCCCO)C3)C(=O)[C@H](CC(C)(C)C)N2C1=O [ID-5, (3R,6S,9aS)-1-((E)-3-(benzo[d]thiazol-2-yl)acryloyl)-8-((S)-1-(4-hydroxybutyl)pyrrolidin-3-yl)-3-isobutyl-6-neopentyltetrahydropyrazino[2,1-c][1,2,4]oxadiazine-4,7(3H,6H)-dione] | 180 |  |
| CC(C)C[C@H]1ON(C(=O)/C=C/c2nc3ccccc3s2)[C@H]2CN([C@@H]3CCN(CCCCO)C3)C(=O)[C@H](CC(C)(C)C)N2C1=O [ID-6, (3R,6S,9aS)-1-((E)-3-(benzo[d]thiazol-2-yl)acryloyl)-8-((R)-1-(4-hydroxybutyl)pyrrolidin-3-yl)-3-isobutyl-6-neopentyltetrahydropyrazino[2,1-c][1,2,4]oxadiazine-4,7(3H,6H)-dione] | 130 |  |
| CC(C)C[C@H]1ON(C(=O)/C=C/c2nc3cc(O)ccc3s2)[C@H]2CN([C@H]3CCN(CCCCO)C3)C(=O)[C@H](CC(C)(C)C)N2C1=O [ID-7, (3R,6S,9aS)-1-((E)-3-(5-hydroxybenzo[d]thiazol-2-yl)acryloyl)-8-((S)-1-(4-hydroxybutyl)pyrrolidin-3-yl)-3-isobutyl-6-neopentyltetrahydropyrazino[2,1-c][1,2,4]oxadiazine-4,7(3H,6H)-dione] | 70 |  |
| CC(C)C[C@H]1ON(C(=O)/C=C/c2nc3cc(O)ccc3s2)[C@H]2CN(C3CN(CCCCO)C3)C(=O)[C@H](CC(C)(C)C)N2C1=O [ID-8, (3R,6S,9aS)-1-((E)-3-(5-hydroxybenzo[d]thiazol-2-yl)acryloyl)-8-(1-(4-hydroxybutyl)azetidin-3-yl)-3-isobutyl-6-neopentyltetrahydropyrazino[2,1-c][1,2,4]oxadiazine-4,7(3H,6H)-dione] | 63 |  |
| CC(C)C[C@H]1ON(C(=O)/C=C/c2nc(C#CCCCCO)cs2)[C@H]2CN([C@H]3CCN(CCCCO)C3)C(=O)[C@H](CC(C)(C)C)N2C1=O [ID-9, (3R,6S,9aS)-8-((S)-1-(4-hydroxybutyl)pyrrolidin-3-yl)-1-((E)-3-(4-(6-hydroxyhex-1-yn-1-yl)thiazol-2-yl)acryloyl)-3-isobutyl-6-neopentyltetrahydropyrazino[2,1-c][1,2,4]oxadiazine-4,7(3H,6H)-dione] | 99 |  |
| CC(C)C[C@H]1ON(C(=O)/C=C/c2nc(C#CCCCO)cs2)[C@H]2CN(C3CCN(C(C)C)CC3)C(=O)[C@H](CC(C)(C)C)N2C1=O [ID-10, (3R,6S,9aS)-1-((E)-3-(4-(5-hydroxypent-1-yn-1-yl)thiazol-2-yl)acryloyl)-3-isobutyl-8-(1-isopropylpiperidin-4-yl)-6-neopentyltetrahydropyrazino[2,1-c][1,2,4]oxadiazine-4,7(3H,6H)-dione] | 48 |  |
| CC(C)C[C@H]1ON(C(=O)/C=C/c2nc(C#CCCCCO)cs2)[C@H]2CN([C@@H]3CCN(CCCCO)C3)C(=O)[C@H](CC(C)(C)C)N2C1=O [ID-11, (3R,6S,9aS)-8-((R)-1-(4-hydroxybutyl)pyrrolidin-3-yl)-1-((E)-3-(4-(6-hydroxyhex-1-yn-1-yl)thiazol-2-yl)acryloyl)-3-isobutyl-6-neopentyltetrahydropyrazino[2,1-c][1,2,4]oxadiazine-4,7(3H,6H)-dione] | 140 |  |
| CC(C)C[C@H]1ON(C(=O)/C=C/c2nc3cc(O)ccc3s2)[C@H]2CN([C@@H]3CCN(CCCCO)C3)C(=O)[C@H](CC(C)(C)C)N2C1=O [ID-12, (3R,6S,9aS)-1-((E)-3-(5-hydroxybenzo[d]thiazol-2-yl)acryloyl)-8-((R)-1-(4-hydroxybutyl)pyrrolidin-3-yl)-3-isobutyl-6-neopentyltetrahydropyrazino[2,1-c][1,2,4]oxadiazine-4,7(3H,6H)-dione] | 60 |  |
| CC(C)C[C@H]1ON(C(=O)/C=C/c2nc(C#CCCCCCO)cs2)[C@H]2CN([C@@H]3CCN(CCCCO)C3)C(=O)[C@H](CC(C)(C)C)N2C1=O [ID-13, (3R,6S,9aS)-8-((R)-1-(4-hydroxybutyl)pyrrolidin-3-yl)-1-((E)-3-(4-(7-hydroxyhept-1-yn-1-yl)thiazol-2-yl)acryloyl)-3-isobutyl-6-neopentyltetrahydropyrazino[2,1-c][1,2,4]oxadiazine-4,7(3H,6H)-dione] | 140 |  |
| CC(C)C[C@H]1ON(C(=O)/C=C/c2ccccn2)[C@H]2CN(CCC(N)=O)C(=O)[C@H](CC(C)C)N2C1=O [ID-14, 3-((3R,6S,9aS)-3,6-diisobutyl-4,7-dioxo-1-((E)-3-(pyridin-2-yl)acryloyl)hexahydropyrazino[2,1-c][1,2,4]oxadiazin-8 (1H)-yl)propanamide] | 17800 |  |
| CC(C)C[C@H]1ON(C(=O)/C=C/c2ccccn2)[C@H]2CN(C3CCN(C(=O)c4ccccc4)CC3)C(=O)[C@H](CC(C)C)N2C1=O [ID-15, (3R,6S,9aS)-8-(1-benzoylpiperidin-4-yl)-3,6-diisobutyl-1-((E)-3-(pyridin-2-yl)acryloyl)tetrahydropyrazino[2,1-c][1,2,4]oxadiazine-4,7(3H,6H)-dione] | 5800 | 99.9 |
| CC(C)C[C@H]1ON(C(=O)/C=C/c2ccccn2)[C@H]2CN(C3CCNCC3)C(=O)[C@H](CC(C)C)N2C1=O [ID-16, (3R,6S,9aS)-3,6-diisobutyl-8-(piperidin-4-yl)-1-((E)-3-(pyridin-2-yl)acryloyl)tetrahydropyrazino[2,1-c][1,2,4]oxadiazine-4,7(3H,6H)-dione] | 4700 | 100 |
| CC(C)C[C@H]1ON(C(=O)/C=C/c2nccs2)[C@H]2CN(CCC(N)=O)C(=O)[C@H](CC(C)C)N2C1=O [ID-17, 3-((3R,6S,9aS)-3,6-diisobutyl-4,7-dioxo-1-((E)-3-(thiazol-2-yl)acryloyl)hexahydropyrazino[2,1-c][1,2,4]oxadiazin-8(1H)-yl)propanamide] | 11400 | 100 |
| CNC(=O)CCN1C[C@@H]2N(C(=O)/C=C/c3ccccn3)O[C@H](CC(C)C)C(=O)N2[C@@H](CC(C)C)C1=O [ID-18, 3-((3R,6S,9aS)-3,6-diisobutyl-4,7-dioxo-1-((E)-3-(pyridin-2-yl)acryloyl)hexahydropyrazino[2,1-c][1,2,4]oxadiazin-8 (1H)-yl)—N-methylpropanamide] | 15900 | 96.4 |
| CNCCCN1C[C@H](CC(C)C)N2C(=O)[C@@H](CC(C)C)ON(C(=O)/C=C/c3ccccn3)[C@H]2C1 [ID-19, (3R,6S,9aS)-3,6-diisobutyl-8-(3-(methylamino)propyl)-1-((E)-3-(pyridin-2-yl)acryloyl)hexahydropyrazino[2,1-c][1,2,4]oxadiazin-4(3H)-one] | 10200 | 99.7 |
| CC(C)C[C@H]1ON(C(=O)/C=C/c2ccc3ccccc3n2)[C@H]2CN(CCC(N)=O)C(=O)[C@H](CC(C)C)N2C1=O [ID-20, 3-((3R,6S,9aS)-3,6-diisobutyl-4,7-dioxo-1-((E)-3-(quinolin-2-yl)acryloyl)hexahydropyrazino[2,1-c][1,2,4]oxadiazin-8 (1H)-yl)propanamide] | 2400 | 100 |
| CC(C)C[C@H]1ON(C(=O)/C=C/c2ccccn2)[C@H]2CN(CCC(=O)N3CCNCC3)C(=O)[C@H](CC(C)C)N2C1=O [ID-21, (3R,6S,9aS)-3,6-diisobutyl-8-(3-oxo-3-(piperazin-1-yl)propyl)-1-((E)-3-(pyridin-2-yl)acryloyl)tetrahydropyrazino[2,1-c][1,2,4]oxadiazine-4,7 (3H, 6H)-dione] | 19800 | 99.5 |
